System: FLK-1 receptor
Assay: FLK-1 Assay (cellular/catalytic ELISA, VEGF-stimulated phosphotyrosine)
Type: cell-based
Set-up: concentration or dose not given beside the values
Summary of the method: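 NIH3T3 C7#3 cells engineered to express Flk-1 were serum-starved overnight (0.1% FBS), then exposed to compound for 2 h at 37 °C (final dilution 1:200, 0.5% DMSO) before VEGF stimulation. Lysates captured on anti-FLK-1 antiserum plates; phosphotyrosine detected by UB40 antibody/POD-ABTS ELISA versus untreated controls.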

| SMILES | Flk Kinase % Inhibition (P.110) [%] |
| --- | --- |
| CCOC(=O)c1c(C)[nH]c(C=C2C(=O)Nc3c(Br)cc(Br)c(C)c32)c1C [10718/H02] | −1.4 |
| COc1cc(Br)c(O)c(C=C2C(=O)Nc3c(Br)cc(Br)c(C)c32)c1 [10718/H03] | −5.0 |
| Cc1c(Br)cc(Br)c2c1C(=Cc1ccc3ccccc3c1O)C(=O)N2 [10718/H04] | −5.7 |
| CCOC(=O)CCc1c(C(=O)OCC)[nH]c(C=C2C(=O)Nc3c(Br)cc(Br)c(C)c32)c1CC(=O)OCC [10718/H05] | 1.0 |
| CCOC(=O)c1cc(C=C2C(=O)Nc3c(Br)cc(Br)c(C)c32)oc1C [10718/H06] | 18.2 |
| COC(=O)c1[nH]c(C)c(C=C2C(=O)Nc3c(Br)cc(Br)c(C)c32)c1C(=O)OC [10718/H07] | −3.0 |
| Cc1c(Br)cc(Br)c2c1C(=Cc1ccc(Cl)c([N+](=O)[O-])c1)C(=O)N2 [10718/H08] | −0.5 |
| CCOc1cccc(C=C2C(=O)Nc3c(Br)cc(Br)cc32)c1O [10734/A02] | 4.1 |
| O=C1Nc2c(Br)cc(Br)cc2C1=Cc1cc(Cl)cc(Cl)c1O [10734/A03] | 10.1 |
| O=C1Nc2c(Br)cc(Br)cc2C1=Cc1cc(Cl)ccc1O [10734/A04] | 0.6 |
| CCN(CC)c1ccc(C=C2C(=O)Nc3c(Br)cc(Br)cc32)c(O)c1 [10734/A05] | 9.1 |
| O=C1Nc2c(Br)cc(Br)cc2C1=Cc1ccc([N+](=O)[O-])cc1 [10734/A06] | −6.4 |
| O=C1Nc2c(Br)cc(Br)cc2C1=Cc1cc(Br)cc(Br)c1O [10734/A07] | −9.4 |
| O=C1Nc2c(Br)cc(Br)cc2C1=Cc1cccc(F)c1O [10734/A08] | 0.1 |
| O=C1Nc2c(Br)cc(Br)cc2C1=Cc1ccc(O)c(Br)c1 [10734/A09] | −7.9 |
| CC(C)(C)c1ccc(C=C2C(=O)Nc3c(Br)cc(Br)cc32)cc1 [10734/A10] | 4.4 |
| O=C1Nc2c(Br)cc(Br)cc2C1=Cc1ccc(Br)s1 [10734/A11] | 6.3 |
| CCOc1cccc(C=C2C(=O)Nc3ccc(I)cc32)c1O [10734/B02] | 8.5 |
| O=C1Nc2ccc(I)cc2C1=Cc1cc(Cl)cc(Cl)c1O [10734/B03] | 21.7 |

| SMILES | Flk Kinase % Inhibition (P.110) [%] |
| --- | --- |
| O=C1Nc2ccc(I)cc2C1=Cc1cc(Cl)ccc1O [10734/B04] | 2.8 |
| CCN(CC)c1ccc(C=C2C(=O)Nc3ccc(I)cc32)c(O)c1 [10734/B05] | −2.3 |
| O=C1Nc2ccc(I)cc2C1=Cc1ccc([N+](=O)[O-])cc1 [10734/B06] | −0.9 |
| O=C1Nc2ccc(I)cc2C1=Cc1cc(Br)cc(Br)c1O [10734/B07] | 9.1 |
| O=C1Nc2ccc(I)cc2C1=Cc1cccc(F)c1O [10734/B08] | −0.5 |
| O=C1Nc2ccc(I)cc2C1=Cc1ccc(O)c(Br)c1 [10734/B09] | −32.3 |
| CC(C)(C)c1ccc(C=C2C(=O)Nc3ccc(I)cc32)cc1 [10734/B10] | 15.7 |
| O=C1Nc2ccc(I)cc2C1=Cc1ccc(Br)s1 [10734/B11] | 12.6 |
| CCOc1cccc(C=C2C(=O)Nc3ccc(Br)c(C)c32)c1O [10734/C02] | −3.9 |
| Cc1c(Br)ccc2c1C(=Cc1cc(Cl)cc(Cl)c1O)C(=O)N2 [10734/C03] | −5.6 |
| Cc1c(Br)ccc2c1C(=Cc1cc(Cl)ccc1O)C(=O)N2 [10734/C04] | −37.6 |
| CCN(CC)c1ccc(C=C2C(=O)Nc3ccc(Br)c(C)c32)c(O)c1 [10734/C05] | −10.3 |
| Cc1c(Br)ccc2c1C(=Cc1ccc([N+](=O)[O-])cc1)C(=O)N2 [10734/C06] | −1.7 |
| Cc1c(Br)ccc2c1C(=Cc1cc(Br)cc(Br)c1O)C(=O)N2 [10734/C07] | −2.7 |
| Cc1c(Br)ccc2c1C(=Cc1cccc(F)c1O)C(=O)N2 [10734/C08] | −34.2 |
| Cc1c(Br)ccc2c1C(=Cc1ccc(O)c(Br)c1)C(=O)N2 [10734/C09] | −13.3 |
| Cc1c(Br)ccc2c1C(=Cc1ccc(C(C)(C)C)cc1)C(=O)N2 [10734/C10] | 10.1 |
| Cc1c(Br)ccc2c1C(=Cc1ccc(Br)s1)C(=O)N2 [10734/C11] | 6.3 |
| CCOc1cccc(C=C2C(=O)Nc3ccc(S(=O)(=O)NC)cc32)c1O [10734/D02] | −11.5 |

| SMILES | Flk Kinase % Inhibition (P.110) [%] |
| --- | --- |
| CNS(=O)(=O)c1ccc2c(c1)C(=Cc1cc(Cl)cc(Cl)c1O)C(=O)N2 [10734/D03] | 17.4 |
| CNS(=O)(=O)c1ccc2c(c1)C(=Cc1cc(Cl)ccc1O)C(=O)N2 [10734/D04] | 6.1 |
| CCN(CC)c1ccc(C=C2C(=O)Nc3ccc(S(=O)(=O)NC)cc32)c(O)c1 [10734/D05] | 2.4 |
| CNS(=O)(=O)c1ccc2c(c1)C(=Cc1ccc([N+](=O)[O-])cc1)C(=O)N2 [10734/D06] | 0.0 |
| CNS(=O)(=O)c1ccc2c(c1)C(=Cc1cc(Br)cc(Br)c1O)C(=O)N2 [10734/D07] | 14.7 |
| CNS(=O)(=O)c1ccc2c(c1)C(=Cc1cccc(F)c1O)C(=O)N2 [10734/D08] | 2.5 |
| CNS(=O)(=O)c1ccc2c(c1)C(=Cc1ccc(O)c(Br)c1)C(=O)N2 [10734/D09] | −11.6 |
| CNS(=O)(=O)c1ccc2c(c1)C(=Cc1ccc(C(C)(C)C)cc1)C(=O)N2 [10734/D10] | 11.1 |
| CNS(=O)(=O)c1ccc2c(c1)C(=Cc1ccc(Br)s1)C(=O)N2 [10734/D11] | 9.8 |
| CCOc1cccc(C=C2C(=O)Nc3ccc(S(=O)(=O)Nc4ccc(C(F)(F)F)cc4)cc32)c1O [10734/E02] | 7.9 |
| O=C1Nc2ccc(S(=O)(=O)Nc3ccc(C(F)(F)F)cc3)cc2C1=Cc1cc(Cl)cc(Cl)c1O [10734/E03] | 26.9 |
| O=C1Nc2ccc(S(=O)(=O)Nc3ccc(C(F)(F)F)cc3)cc2C1=Cc1cc(Cl)ccc1O [10734/E04] | 10.7 |
| CCN(CC)c1ccc(C=C2C(=O)Nc3ccc(S(=O)(=O)Nc4ccc(C(F)(F)F)cc4)cc32)c(O)c1 [10734/E05] | 10.6 |
| O=C1Nc2ccc(S(=O)(=O)Nc3ccc(C(F)(F)F)cc3)cc2C1=Cc1ccc([N+](=O)[O-])cc1 [10734/E06] | 28.4 |
| O=C1Nc2ccc(S(=O)(=O)Nc3ccc(C(F)(F)F)cc3)cc2C1=Cc1cc(Br)cc(Br)c1O [10734/E07] | 27.9 |
| O=C1Nc2ccc(S(=O)(=O)Nc3ccc(C(F)(F)F)cc3)cc2C1=Cc1cccc(F)c1O [10734/E08] | 26.6 |
| O=C1Nc2ccc(S(=O)(=O)Nc3ccc(C(F)(F)F)cc3)cc2C1=Cc1ccc(O)c(Br)c1 [10734/E09] | 8.0 |
| CC(C)(C)c1ccc(C=C2C(=O)Nc3ccc(S(=O)(=O)Nc4ccc(C(F)(F)F)cc4)cc32)cc1 [10734/E10] | 18.5 |
| O=C1Nc2ccc(S(=O)(=O)Nc3ccc(C(F)(F)F)cc3)cc2C1=Cc1ccc(Br)s1 [10734/E11] | 19.2 |

Reference: patent US20020026053A1, “Novel 3-(substituted) -2- indolinones compounds and use thereof as inhibitors of protein kinase activity” (priority 1997, published 2002)
